{"source": "patent US6852538B1", "about": "“Nur-RE a response element which binds nur nuclear receptors and method of use therefor” (Institut de Recherches Cliniques de Montreal, priority 1996, dated 2005)", "key": {"[1]": {"test_system": "rat POMC promoter (−480 to +63 bp)", "assay": "POMC promoter-luciferase reporter lipofected in AtT-20 cells", "assay_type": "cell-based", "settings": "Dex 10^−7M", "description": "(§1) Transfections in AtT-20 cells were performed by lipofection (lipofectin, Gibco) using exponentially growing AtT-20 cells (7.5×10^5) in 35 mm Petri dishes. Cells were grown in DMEM with 10% fetal calf serum stripped with dextran-coated charcoal. Cells and media were harvested 16 h after lipofection. Each sample for lipofection contained a total of 1.5 μg DNA, including 300 ng reporter plasmid, 300 ng RSV-GH as internal control, 100 ng of pCMX-Nur77 expression vector, and total DNA was completed to 1.5 μg with pSP64. The POMC promoter constructs were described previously (Therrien et al., 1991, Mol. Cell. Biol. 11:3492-3503; Therrien et al., 1993, Cell. Biol. 13:2342-2353.). In particular, the NurRE and nGRE linker scanning replacement mutations were described previously as mutants 3 and 15 in a series of promoter mutations (Therrien et al., 1991, supra). DO 11.10 cells were electroporated using a Biorad instruments at 250 V, 960 μFarad, and 10 μg each of reporter plasmid and expression vectors. CRH (10^−7M) and forskolin (10^−7M) were used at maximally active concentrations, and anti-CD3 (clone 145-2C11) was used at 1 μg/ml to coat dishes. The expression plasmid for the Nur77 dominant negative mutant was used at 3 μg/dish. Data are presented as the means ± SEM of 3 to 5 experiments each performed in duplicate. […]"}, "Nur77 mRNA": {"test_system": "Nur77 mRNA", "assay": "Northern blot of Nur77 mRNA in AtT-20 cells", "assay_type": "cell-based", "description": "Total RNA (20 μg) extracted from AtT-20 cells was used in Northern blot experiments performed as described previously (Lamonerie et al., 1996, Genes Dev. 10:1284-1295)."}, "Nur-RE [2]": {"test_system": "Nur-RE", "assay": "NurRE-luc reporter cotransfection with Nur77 and GR in CV-1 cells", "assay_type": "cell-based", "settings": "Dex 10^−7M, ratio 1/0"}, "NBRE": {"test_system": "NBRE", "assay": "NBRE-luc reporter, antagonism between Nur77 and Dex", "assay_type": "cell-based", "settings": "data not shown", "description": "Transfections in AtT-20 cells were performed by lipofection (Lipofectamine, Gibco) using exponentially growing AtT-20 cells (7.5×10^5) in 35 mm Petri dishes. Cells were grown in DMEM with 10% fetal calf serum stripped with dextrancoated charcoal (Drouin et al., 1976, Endocrinology 98:1528-1534). Cells and media were harvested 16 h after lipofection. Each sample for lipofection contained a total of 1.5 μg DNA, including 300 ng reporter plasmid, 300 ng RSV-GH as internal control, 100 ng of pCMX-Nur77 expression vector, and total DNA was completed to 1.5 μg with pSP64. Where indicated, CRH and Dex were added at 10^−7M. The POMC promoter constructs were described previously (Therrien et al., 1991, Mol. Cell. Biol. 11:3492-3503; Therrien et al., 1993, Mol. Cell. Biol. 13:2342-2353). In particular, the NurRE and nGRE linker scanning replacement mutations were described previously as mutants 3 and 15 in a series of promoter mutations (Therrien et al., 1991, supra). DO 11.10 cells ([…] in 0.35 ml SMEM) were electroporated using a Biorad instruments at 250 V, 960 μFarad, and 10 μq each of reporter plasmid and expression vectors. After electroporation, cells were plated in SMEM containing 5% fetal calf serum with or without 10^−7M Dex, antiCD3 (clone 145-2C11) was used at 1 μg/ml to coat dishes (Iwata et al., 1991, Eur. J. Pharmacol. 21:643-648). […]"}, "Nur-RE [3]": {"test_system": "Nur-RE", "assay": "NurRE-luc reporter (three copies of Nur-RE upstream of minimal POMC promoter) in AtT-20 cells", "assay_type": "cell-based", "settings": "CRH 10^−7M", "description": "as §1"}, "Nur77 (NGFI-B) [4]": {"target": "T1, Nur77 (NGFI-B) (UniProt P12813 P12813:1-601)", "T1 sequence (P12813 whole entry, one chain of several)": "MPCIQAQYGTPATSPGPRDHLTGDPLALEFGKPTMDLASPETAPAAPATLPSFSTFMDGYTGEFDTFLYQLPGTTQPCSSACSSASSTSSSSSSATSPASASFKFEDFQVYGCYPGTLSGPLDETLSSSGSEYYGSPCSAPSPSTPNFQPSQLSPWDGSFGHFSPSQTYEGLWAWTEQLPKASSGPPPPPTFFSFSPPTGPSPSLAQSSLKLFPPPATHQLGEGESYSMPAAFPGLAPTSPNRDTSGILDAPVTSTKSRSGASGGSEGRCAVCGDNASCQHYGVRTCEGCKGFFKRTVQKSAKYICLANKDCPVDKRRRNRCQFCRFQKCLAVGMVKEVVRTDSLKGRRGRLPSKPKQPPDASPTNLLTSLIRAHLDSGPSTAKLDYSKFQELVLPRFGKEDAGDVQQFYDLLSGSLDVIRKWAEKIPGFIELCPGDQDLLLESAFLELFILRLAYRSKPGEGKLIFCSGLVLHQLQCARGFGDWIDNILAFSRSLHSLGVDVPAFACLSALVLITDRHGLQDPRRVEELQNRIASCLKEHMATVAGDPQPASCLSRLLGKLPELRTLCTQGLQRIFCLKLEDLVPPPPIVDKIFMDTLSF", "assay": "EMSA; binds as monomer", "settings": "tags: Promega TNT SP6/T7, pCMX-Nur77; label: 3'-end label (Klenow)", "quoted_text": "For gel retardation experiments, Nur-RE or NBRE oligonucleotides were 3'-end-labeled using Klenow polymerase and purified on polyacrilamide gels.\n(§2) The interaction of Nur77 with Nur-RE was investigated directly in binding studies using in vitro translated Nur77."}, "[5]": {"target": "Glucocorticoid receptor (GR) (UniProt P06536 P06536:1-795)", "sequence (P06536 whole entry, one chain of several)": "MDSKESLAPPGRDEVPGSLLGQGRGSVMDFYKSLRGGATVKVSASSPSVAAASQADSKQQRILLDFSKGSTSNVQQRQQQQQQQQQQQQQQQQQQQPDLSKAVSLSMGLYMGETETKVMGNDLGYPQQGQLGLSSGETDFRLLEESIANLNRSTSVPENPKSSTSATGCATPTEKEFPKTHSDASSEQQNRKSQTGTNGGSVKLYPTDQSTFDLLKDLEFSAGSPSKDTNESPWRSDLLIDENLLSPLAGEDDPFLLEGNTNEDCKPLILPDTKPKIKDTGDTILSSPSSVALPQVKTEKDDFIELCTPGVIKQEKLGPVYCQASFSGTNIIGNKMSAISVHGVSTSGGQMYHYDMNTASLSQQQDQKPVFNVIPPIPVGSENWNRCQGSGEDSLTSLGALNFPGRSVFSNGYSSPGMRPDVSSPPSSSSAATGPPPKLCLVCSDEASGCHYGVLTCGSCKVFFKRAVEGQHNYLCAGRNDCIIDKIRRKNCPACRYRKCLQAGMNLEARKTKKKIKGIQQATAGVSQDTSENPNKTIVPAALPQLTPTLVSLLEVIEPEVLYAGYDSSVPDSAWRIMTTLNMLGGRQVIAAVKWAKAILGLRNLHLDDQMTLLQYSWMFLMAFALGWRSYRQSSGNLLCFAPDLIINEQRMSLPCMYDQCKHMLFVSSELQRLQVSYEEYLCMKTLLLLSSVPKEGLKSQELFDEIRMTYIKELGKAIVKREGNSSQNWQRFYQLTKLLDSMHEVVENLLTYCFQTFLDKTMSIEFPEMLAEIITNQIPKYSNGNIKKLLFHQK", "assay": "EMSA", "settings": "tags: Promega TNT; label: 3'-end label (Klenow)"}, "Nur77 (NGFI-B) [6]": {"target": "T1, Nur77 (NGFI-B)", "assay": "EMSA; binds as homodimer, apparently cooperative; DMS interference maps two inverted octamers 6 bp apart", "settings": "tags: Promega TNT SP6/T7, pCMX-Nur77; label: 3'-end label (Klenow)", "quoted_text": "End-labeled coding (C) and non-coding (NC) strands of the Nur-RE were used for DMS interference of Nur77 binding. […] E) Binding of Nur77 to the wild-type and mutant Nur-RE. […] Methods. For gel retardation experiments, Nur-RE or NBRE oligonucleotides were 3'-end-labeled using Klenow polymerase and purified on polyacrilamide gels.\nas §2"}}, "note": "“Also recorded” adds a separate entry of the source. Ends that are not written are not given here."}
{"molecule": "C[C@@H]1C[C@H]2[C@@H]3CCC4=CC(=O)C=C[C@]4(C)[C@@]3(F)[C@@H](O)C[C@]2(C)[C@@]1(O)C(=O)CO", "note": "[Dex, dexamethasone]", "values": [{"measurement": "magnitude of the repression of POMC promoter/luciferase reporter", "setting": "[1]", "value": "2- to 3 fold"}, {"measurement": "reduction of the CRH induction of Nur77 mRNA", "setting": "Nur77 mRNA; Dex 10^−7M with CRH 10^−7M", "value": "about 50%"}, {"measurement": "effect on Nur77 activation at the NurRE in the absence of GR", "setting": "Nur-RE [2]", "value": "no effect"}, {"measurement": "magnitude of Nur77/Dex antagonism on NBRE-luc reporter relative to NurRE-luc", "setting": "NBRE", "value": "about 40 fold less"}]}
{"molecule": "Corticotropin Releasing Hormone (SEEPPISLDLTFHLLREVLEMARAEQLAQQAHSNRKLMEII; ends and bridges not checked; UniProt P06850 154-194, looked up) [CRH, hypothalamic hormone, major stimulus of pituitary ACTH secretion and of POMC transcription]", "values": [{"measurement": "response of Nur-RE reporter (oligomerized response element, construct 6) to CRH", "setting": "Nur-RE [3]", "value": "greatly enhanced response"}, {"measurement": "induction of Nur77 mRNA/expression", "setting": "Nur77 mRNA; CRH 10^−7M", "value": "rapidly Induced; also recorded: transient induction"}]}
{"molecule": "NBRE (dsDNA) DNA 1: GATCCTCGTGCGAAAAGGTCAAGCGCTA DNA 2: TAGCGCTTGACCTTTTCGCACGAGGATC", "values": [{"measurement": "binding result", "setting": "Nur77 (NGFI-B) [4]", "value": "binds"}]}
{"molecule": "NurRE (POMC) (dsDNA) DNA 1: GATCCTAGTGATATTTACCTCCAAATGCCAGGA DNA 2: TCCTGGCATTTGGAGGTAAATATCACTAGGATC", "values": [{"measurement": "binding result", "setting": "[5]", "value": "no binding"}, {"measurement": "binding result", "setting": "Nur77 (NGFI-B) [6]", "value": "binds"}]}
